Experimental data as given in US20060057669A1, “Inactive transcription factor tif-ia and uses thereof” (priority 2002, published 2006).

Assays:
Pol I transcription = test: Pol I reporter plasmid pMrl930-BH co-transfection in NIH3T3 cells, Northern blot; assay type: cell-based; details: 0.25, 0.5 or 1 μg expression vector
Method: (C) Phosphorylation by RSK is necessary and sufficient for enhancing TIF-IA activity in vivo. NIH3T3 cells were co-transfected with 3 μg pMrl930-BH and lor 2.5 μg of pMT2-HA-CA-RSK2 (lanes 2, 3). Transcripts from the reporter plasmid were monitored on Northern blots. An ethidium bromide stain of cellular 18S and 28S rRNA is shown below.
(C) Transcriptional activity of TIF-IAS44A in vivo. NIH3T3 cells were cotransfected with 2.5 μg Pol I reporter plasmid (pMrl930-BH) and 0.25, 0.5 or 1 μg of pcDNA3.1-TIF-IA (lanes 2-4), TIF-IAS44A (lanes 5-7). Transcripts from the reporter plasmid were monitored on Northern blots. The amount of cellular 18S and 28S rRNA is shown below.
NIH3T3, HEK293T and CLL39 cells were cultured in Dulbecco's modified Eagles medium (DMEM) supplemented with 10% fetal calf serum. Cells were transfected with 5 μg of DNA per 10^6 cells using the calcium phosphate DNA coprecipitation method. Total RNA was isolated after 48 h and analyzed on Northern blots as described (Voit et al., EMBO J. 18 (1999), 1891-1899). Cellular pre-rRNA levels were monitored by hybridization to antisense RNA complementary to the first 155 nucleotides of unprocessed 45S pre-RNA. Transcripts from the rDNA reporter plasmid were monitored by hybridization to a riboprobe that is complementary to pUC sequences inserted between the rDNA promoter and terminator sequences of pMrl930-BH. […]

[1] = system: pre-rRNA synthesis in NIH3T3 cells; test: Northern blot of cellular pre-rRNA after mitogenic stimulation; assay type: cell-based; details: starved NIH3T3 cells stimulated by serum, bFGF, EGF or TPA; 40 μM PD98059, 30 min
Method: (C) PD98059 inhibits mitogenic stimulation of Pol I transcription. NIH3T3 cells were starved in DMEM/0.1% FCS for 12 hr before stimulation by serum, 10 ng/ml bFGF, 50 ng/ml EGF or 0.1 μM TPA in the absence or presence of 40 μM PD98059 for 30 min. Cellular RNA was isolated and the level of pre-rRNA, c-jun mRNA and cytochrome C oxidase (cox) mRNA was monitored on Northern blots.
NIH3T3, HEK293T and CLL39 cells were cultured in Dulbecco's modified Eagles medium (DMEM) supplemented with 10% fetal calf serum. Cells were transfected with 5 μg of DNA per 10^6 cells using the calcium phosphate DNA coprecipitation method. Total RNA was isolated after 48 h and analyzed on Northern blots as described (Voit et al., EMBO J. 18 (1999), 1891-1899). Cellular pre-rRNA levels were monitored by hybridization to antisense RNA complementary to the first 155 nucleotides of unprocessed 45S pre-RNA. Transcripts from the rDNA reporter plasmid were monitored by hybridization to a riboprobe that is complementary to pUC sequences inserted between the rDNA promoter and terminator sequences of pMrl930-BH. […] Transcripts from the rDNA reporter plasmid were monitored by hybridization to a riboprobe that is complementary to pUC sequences inserted between the rDNA promoter and terminator sequences of pMrl930-BH. […]

Question: For “TIF-IA: wild-type human transcription initiation factor TIF-IA, accession No. AJ272050”, which “transcription of the Pol I reporter” value (Pol I transcription) is on record?
Answer: Its value is “enhanced transcription of the reporter”.

Question: COc1cccc(-c2cc(=O)c3ccccc3o2)c1N [PD98059] was tested. Which “effect on serum- and growth factor-induced pre-rRNA synthesis” value [1] did it give?
Answer: The value was “blocked serum- and growth factor-induced stimulation of pre-rRNA synthesis”.
